Measurements: patent US20220395553A1, “CXCR4 ANTAGONIST PEPTIDES” (COHBAR, INC., priority 2019, published 2022)
Square brackets hold non-standard residues; d marks the D form. Peptide text beside a SMILES is read from it.

Assays:
[1] = test system: C2C12 Mouse Myoblasts; assay: Glucose utilization in C2C12 mouse myoblasts; format: cell-based; details: peptide 10 μM, 18-22 hours, relative to 0.1% DMSO treated control cells
Experimental: The effect of the peptides on glucose metabolism can be assessed using an assay of glucose utilization in cultured cultured cells such as mouse myoblasts. Peptides were initially prepared as 10 mM stock in DMSO and used at a final concentration of 10 μM (0.1% DMSO). C2C12 mouse myoblast cell line was purchased from American Type Culture Collection (Manassas, Va.). C2C12 cultures were maintained at 37° C. in a humidified atmosphere of 5% CO2/95% air with medium changes every second day. C2C12 cells were grown in DMEM (1 g/L glucose) supplemented with 10% FBS with 100 IU/ml penicillin and 100 μg/ml streptomycin. C2C12 cells were seeded at 7,000 cells per well on 96-well plates and cultured to confluence. Once the cell reached confluence the media was changed to DMEM (1 g/L glucose) supplemented with 2% HS with 100 IU/ml penicillin and 100 μg/ml streptomycin and maintained at 37° C. in a humidified atmosphere of 5% CO2/95% air, 5 days post-induction of differentiation fresh DMEM (1 g/L glucose) supplemented with 2% HS with 100 IU/ml penicillin and 100 μg/ml streptomycin was added to cultures. Cells were maintained at 37° C. in a humidified atmosphere of 5% CO2 and 95% air for 5 hours. After 5 hours test peptides at 10 μM or controls (0.5 mM or 1 mM metformin in 1% DMSO) prepared in fresh differentiation medium were added to cells and the cultures were maintained at 37° C. in a humidified atmosphere of 5% CO2/95% air for 18-22 hours. At the end of the incubation culture media was removed from the cells and the remaining glucose concentration was measured using a Glucose Assay kit (Abcam) according to the manufacturer's instructions, using a Cytation 3 plate reader at 570 nm (BioTek, Winooski, Vt.). Glucose concentrations in the medium were calculated relative to 0.1% DMSO treated control cells. The relative standard deviation of the result for the 0.1% DMSO treated control was <20%. Metformin was used as a positive control for reduction of glucose levels (increased glucose utilization glucose levels for treatment with metformin (1 mM) treatment were <20% of the 0.1% DMSO treated control value. The results are reported in Table 7.

[2] = test system: CXCR4/CXCL12 induced p-MEK; assay: CXCR4/CXCL12 induced p-MEK in Jurkat cells (ELISA); format: cell-based, human; details: 5 nM CXCL12, 5 min
Summary of the method: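 Jurkat cells in RPMI+GlutaMax containing 10% FBS and 1% penicillin/streptomycin, fresh or conditioned, were resuspended at 2×10^6 cells/ml and […] aliquots placed in tubes. After a 5 min stimulation they were pelleted, rinsed with HBSS and lysed with PMSF and protease/phosphatase inhibitors. Phospho-MEK1 (Ser217/221) was quantified by sandwich ELISA with absorbance read at 450 nm.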

[3] = molecular target: human CXCR4 (Homo sapiens, UniProt P61073); assay: IC50 for inhibition of CXCR4 activation, β-Arrestin recruitment (Example 22); format: cell-based; design: host or cells: C2C12 (mouse myoblast) CXCR4 β-Arrestin PathHunter cell line
Summary of the method: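 C2C12 cells co-expressing ProLink-tagged human CXCR4 and Enzyme Acceptor-tagged β-arrestin (PathHunter). Peptides tested in 10-point, 3-fold dilutions from 1 μM (1 μM–0.05 nM). Recruitment read by chemiluminescent enzyme-fragment complementation after 90 min incubation.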

human CXCR4, sequence (P61073 whole entry, the tested form may be a part): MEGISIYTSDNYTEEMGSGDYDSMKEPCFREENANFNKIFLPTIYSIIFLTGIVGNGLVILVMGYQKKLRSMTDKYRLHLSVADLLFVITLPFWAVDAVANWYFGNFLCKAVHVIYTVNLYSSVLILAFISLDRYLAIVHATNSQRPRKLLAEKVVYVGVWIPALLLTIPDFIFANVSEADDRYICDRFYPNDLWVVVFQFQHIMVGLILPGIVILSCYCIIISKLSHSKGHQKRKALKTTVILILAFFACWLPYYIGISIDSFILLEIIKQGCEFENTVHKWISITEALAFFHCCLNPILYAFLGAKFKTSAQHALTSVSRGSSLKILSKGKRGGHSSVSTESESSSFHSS

| SMILES | Glucose concentration in medium, Percent of Untreated Control [1] [%] | Percent Inhibition of CXCR4/CXCL12 Induced p-MEK (100 nM Test Article) [2] [%] | Percent Inhibition of CXCR4/CXCL12 Induced p-MEK (1 μM Test Article) [2] [%] | IC50 [3] [nM] |
| --- | --- | --- | --- | --- |
| CSCC[C@H](N)C(=O)N[C@@H](CC(C)C)C(=O)N[C@@H](CCCNC(=N)N)C(=O)N[C@@H](CCCNC(=N)N)C(=O)N[C@@H](Cc1ccc(O)cc1)C(=O)N[C@@H](Cc1c[nH]cn1)C(=O)N[C@@H](Cc1c[nH]cn1)C(=O)N[C@@H](CO)C(=O)N[C@H](C(=O)N[C@@H](CCCNC(=N)N)C(=O)N[C@@H](CO)C(=O)N[C@@H](CO)C(=O)N[C@@H](CC(C)C)C(=O)N[C@@H](CCCNC(=N)N)C(=O)N1CCC[C@H]1C(=O)N[C@@H](Cc1ccc(O)cc1)C(=O)N[C@H](C(=O)N[C@@H](CCCCN)C(=O)O)[C@@H](C)O)C(C)C [compound 2] (H-MLRRYHHSVRSSLRPYTK-OH; N-terminus and C-terminus assumed) | 126.7 | −1 | 28 | 11 |
| CC(C)C[C@H](NC(=O)[C@H](CO)NC(=O)[C@H](CO)NC(=O)[C@H](CCCNC(=N)N)NC(=O)[C@@H](C)NC(=O)[C@H](CO)NC(=O)[C@H](Cc1c[nH]cn1)NC(=O)[C@H](Cc1c[nH]cn1)NC(=O)[C@H](Cc1ccc(O)cc1)NC(=O)[C@H](CCCNC(=N)N)NC(=O)[C@H](CCC(=O)O)NC(=O)[C@@H](N)CC(C)C)C(=O)N[C@@H](CCCNC(=N)N)C(=O)N1CCC[C@H]1C(=O)N[C@@H](Cc1ccc(O)cc1)C(=O)N[C@H](C(=O)O)[C@@H](C)O [compound 5] (H-LERYHHS[dA]RSSLRPYT-OH; N-terminus and C-terminus assumed) | 128.3 | −20 | 24 |  |
| CC(C)C[C@H](NC(=O)[C@H](CO)NC(=O)[C@H](CO)NC(=O)[C@H](CCCNC(=N)N)NC(=O)[C@@H](NC(=O)[C@H](CO)NC(=O)[C@H](Cc1c[nH]cn1)NC(=O)[C@H](Cc1c[nH]cn1)NC(=O)[C@H](Cc1ccc(O)cc1)NC(=O)[C@H](CCCNC(=N)N)NC(=O)[C@H](CCCNC(=N)N)NC(=O)[C@@H](N)CC(C)C)C(C)C)C(=O)N[C@@H](CCCNC(=N)N)C(=O)N1CCC[C@H]1C(=O)N[C@@H](Cc1ccc(O)cc1)C(=O)N[C@H](C(=O)N[C@@H](CCCCN)C(=O)O)[C@@H](C)O [compound 3] (H-LRRYHHSVRSSLRPYTK-OH; N-terminus and C-terminus assumed) | 125.8 | 29 | 91 | 5 |
| CC(C)C[C@H](NC(=O)[C@H](CO)NC(=O)[C@H](CO)NC(=O)[C@H](CCCNC(=N)N)NC(=O)[C@@H](NC(=O)[C@H](CO)NC(=O)[C@H](Cc1c[nH]cn1)NC(=O)[C@H](Cc1c[nH]cn1)NC(=O)[C@H](Cc1ccc(O)cc1)NC(=O)[C@H](CCCNC(=N)N)NC(=O)[C@H](CCC(=O)O)NC(=O)[C@@H](N)CC(C)C)C(C)C)C(=O)N[C@@H](CCCNC(=N)N)C(=O)N1CCC[C@H]1C(=O)N[C@@H](Cc1ccc(O)cc1)C(=O)N[C@H](C(=O)N[C@@H](CCCCN)C(=O)O)[C@@H](C)O [compound 4] (H-LERYHHSVRSSLRPYTK-OH; N-terminus and C-terminus assumed) | 127.8 | 40 | 76 | 4 |
